Source: PubChem BioAssay AID1963832 (Molecular Pharmacology Branch, DTP, NCI, 2024)

Test system: 885724-159-R-J1-PDC complex spheroid viability
Experiment: Anticancer human tumor 885724-159-R-J1-PDC patient-derived pancreatic adenocarcinoma cell line growth inhibition [POLQ]
Settings: for IC50: curve of first compound; for viability, T/C: stronger effect = lower value
Procedure: Multicellular complex tumor spheroid response to Polymerase (POL) inhibitors (novobiocin, ART-558, RP6685) in combination with a variety of drugs and investigational agents in selected tumor cell lines
The POL inhibitors (novobiocin, ART-558, and RP6685) were evaluated both individually and in combination with standard of care and investigational anticancer small molecules within a complex spheroid model of solid tumors. . Complex spheroids include a stromal component modeled by human endothelial cells (HUVEC) and fibroblasts modeled by human mesenchymal stem cells (MSCs). The concentration ranges selected for each drug and investigational agent were based upon clinically achievable concentrations if the clinical Cmax of the agent was known.
Compounds. The drugs and investigational agents: novobiocin (NSC847541), ART-558 (NSC835418), RP-6685 (NSC848927), peposertib (NSC802822), ceralasertib (NSC780249), elimusertib (NSC800525), camonsertib (NSC841442), AZD-1390 (NSC803789), olaparib (NSC753686), talazoparib (NSC767125), rucaparib (NSC756644), sotorasib (NSC818433), MRTX-1133 (NSC836407), SN-38 (NSC673596), topotecan (NSC609699), epotoside (NSC141540), doxorubicin (NSC123127), gemcitabine (NSC613327), 5-fluorouracil (NSC19893), paclitaxel (NSC125973), vemurafenib (NSC761431), MSA-2 (NSC828583), SN-011 (NSC837082), adavosertib (NSC754352), prexasertib (NSC758257), carboplatin (NSC241240) and oxaliplatin (NSC266046), were obtained from the National Cancer Institute (NCI) Developmental Therapeutics Program Chemical Repository (21). The FDA-approved anticancer drug set is available from the Developmental Therapeutics Program at https://dtp.cancer.gov/organization/dscb/obtaining/. […] The stock solutions were prepared in dimethyl sulfoxide (DMSO, Sigma-Aldrich, St. Louis, MO, cat. D2650), except for the platinum compounds which were prepared in saline (Quality Biological, Gaithersburg, MD, cat. 114-055-101), at 800-fold the tested concentration and stored at -70 degrees C prior to their use. All drugs and investigational agents were tested over a range starting from a high concentration at or near the clinical Cmax and decreasing in half-log increments. If the clinical Cmax for an agent had not been determined, the highest concentration tested was 10 microM, except for SN-38, which was tested at a high concentration of 1 microM.
Cell Culture. All cells were maintained in an incubator at 37 degrees C and 5% CO2 with 95% humidity. The PDC lines were cultured according to standard operating procedures established by the NCI PDMR (https://pdmr.cancer.gov). Table 3 of the manuscript, lists the cell lines along with the number of the three cell types plated to form the mct-spheroids and media for tumor cell growth. After thawing, all PDC lines, except 997537-175-T-J1-PDC and 415267-285-R-J2-PDC, were cultured in Matrigel-coated flasks prepared with a working solution of 1X Ham's F-12 nutrient mix, without supplementation (Thermo Fisher Scientific, cat. 11765054), 100 U/mL penicillin-streptomycin (Thermo Fisher Scientific, cat. 15140122), and 2.5% Matrigel (Corning Inc., Corning, NY, cat. 354248) for the first three passages. The two PDC lines 997537-175-T-J1-PDC and 415267-285-R-J2-PDC were cultured on uncoated flasks. The 857933-349-R-J2-PDC line was cultured in 6C/Colon 1B media containing advanced DMEM/F-12 (Thermo Fisher Scientific, cat. 12634028), 10 mM HEPES (Thermo Fisher Scientific, cat. 15630080), 1X GlutaMAX supplement (Thermo Fisher Scientific, cat. 35050061), 0.1 mg/mL primocin (InvivoGen, San Diego, CA, cat. ant-pm-2), 10% defined fetal bovine serum, heat inactivated (HyClone Laboratories Inc., Logan, UT, cat. SH30070.03HI), 50% L-WRN conditioned media (ATCC, cat. CRL-3276), 1.25 mM N-Acetyl-L-cysteine (Sigma-Aldrich, cat. A9165), 10 mM nicotinamide (Sigma-Aldrich, cat. N0636), 1X B-27 supplement (Thermo Fisher Scientific, cat. 17504044), 1X N-2 supplement (Thermo Fisher Scientific, cat. […]
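Further: spheroids exposed to compounds for 7 days.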

Work on `CC1COCCN1c1cc(-c2ccnn2C)c2ccnc(-c3ccn[nH]3)c2n1` (configuration not stated) + Cc1cccc(N(C)C(=O)C2C(O)CCN2c2nc(C)cc(C(F)(F)F)c2C#N)c1 yielded an IC50 (second compound 0.0316 µM) of 350 nM, an IC50 (second compound 0.1 µM) of 631 nM and an IC50 (second compound 0.316 µM) of 364 nM. For the same compound, the IC50 (second compound 1 µM) was 467 nM, the IC50 (second compound 3.16 µM) was 576 nM and the IC50 (second compound 10 µM) was 441 nM. It also gave a viability, T/C (second compound 0.0316 µM, first compound 0.0316 µM) of 85.6%, a viability, T/C (second compound 0.0316 µM, first compound 0.1 µM) of 61.2% and a viability, T/C (second compound 0.0316 µM, first compound 0.316 µM) of 52.3%. It also gave a viability, T/C (second compound 0.0316 µM, first compound 1 µM) of 42.6%, a viability, T/C (second compound 0.0316 µM, first compound 3.16 µM) of 45.5% and a viability, T/C (second compound 0.0316 µM, first compound 10 µM) of 39%. It also gave a viability, T/C (second compound 0.1 µM, first compound 0.0316 µM) of 87%, a viability, T/C (second compound 0.1 µM, first compound 0.1 µM) of 66.2% and a viability, T/C (second compound 0.1 µM, first compound 0.316 µM) of 54.2%. The viability, T/C (second compound 0.1 µM, first compound 1 µM) was 47.5%, the viability, T/C (second compound 0.1 µM, first compound 3.16 µM) was 44.7% and the viability, T/C (second compound 0.1 µM, first compound 10 µM) was 36.1%. The viability, T/C (second compound 0.316 µM, first compound 0.0316 µM) was 89.3%, the viability, T/C (second compound 0.316 µM, first compound 0.1 µM) was 61.5% and the viability, T/C (second compound 0.316 µM, first compound 0.316 µM) was 51.5%. For the same compound, the viability, T/C (second compound 0.316 µM, first compound 1 µM) was 47.2%, the viability, T/C (second compound 0.316 µM, first compound 3.16 µM) was 40.6% and the viability, T/C (second compound 0.316 µM, first compound 10 µM) was 41.4%. It also gave a viability, T/C (second compound 1 µM, first compound 0.0316 µM) of 82.9%, a viability, T/C (second compound 1 µM, first compound 0.1 µM) of 65.1% and a viability, T/C (second compound 1 µM, first compound 0.316 µM) of 50.2%. It also gave a viability, T/C (second compound 1 µM, first compound 1 µM) of 47.4%, a viability, T/C (second compound 1 µM, first compound 3.16 µM) of 41.9% and a viability, T/C (second compound 1 µM, first compound 10 µM) of 38.3%. It also gave a viability, T/C (second compound 3.16 µM, first compound 0.0316 µM) of 77.8%, a viability, T/C (second compound 3.16 µM, first compound 0.1 µM) of 63.2% and a viability, T/C (second compound 3.16 µM, first compound 0.316 µM) of 51.9%. For the same compound, the viability, T/C (second compound 3.16 µM, first compound 1 µM) was 47%, the viability, T/C (second compound 3.16 µM, first compound 3.16 µM) was 46.5% and the viability, T/C (second compound 3.16 µM, first compound 10 µM) was 37.8%. The viability, T/C (second compound 10 µM, first compound 0.0316 µM) was 86%, the viability, T/C (second compound 10 µM, first compound 0.1 µM) was 58.5% and the viability, T/C (second compound 10 µM, first compound 0.316 µM) was 50.4%. The viability, T/C (second compound 10 µM, first compound 1 µM) was 53.3%, the viability, T/C (second compound 10 µM, first compound 3.16 µM) was 49.6% and the viability, T/C (second compound 10 µM, first compound 10 µM) was 40.2%.
